Reference: US6740679B1, “Nutritional supplement or pharmaceutical preparation comprising triglycerides with seven-carbon fatty acid” (Baylor University Medical Center, priority 1999, dated 2004)
Entries after “also recorded” stand apart in the source; their conditions may differ.

Legend:
[1] = test system: fibroblasts with severe carnitine/acylcarnitine translocase deficiency (TRANSLOCASE); experiment: Tandem mass spectrometry assay of labeled fatty acid oxidation in cultured cells; assay type: cell-based, human; settings: translocase-deficient fibroblasts; for accumulation of labeled acylcarnitine of the precursor: m/z417 for D3-C16, m/z305 for D3-C8, m/z319 for D3-C9
Procedure: (§1) Fibroblasts taken from the deceased sibling and amniocytes taken from the fetus were both evaluated for fatty acid metabolism of n-heptanoic acid (C7) using a tandem mass spectrometry assay previously reported. (Yang, et al. 1998. “Identification of four novel mutations in patients with carnitine palmitoyltransferase II (CPT II) deficiency,” Mol Genet Metab 64:229-236). […] Each cell line was incubated separately with 7-^2H3-heptanoate (D3-C7), 8-^2H3-octanoate (D3-C8), 9-^2H3-nonanoate (D3-C9), and 16-^2H3-palmitate (D3-C16).
(§2) The normal cell line and eleven abnormal cell lines were analyzed in groups of three. For quantitative purposes, labeled internal standards were included in each analysis and are designated as “IS” on the first profile in each group. The mass numbers for these standards are: m/z420 (^2H6-palmitate-C16), m/z308 (^2H6-octanoate-C8), m/z269 (^2H9-isovaleric-C5) , and m/z237 (^2H5-propionate-C3), wherein m/z is the mass:charge ratio.
(§3) This relative ammount of m/z235 (^2H3-propionate-C3) is compared to the level of the internal standards at m/z269 (^2H9-isovaleric-C5) and m/z237 (^2H5-propionate-C3).

[2] = test system: amniocytes from a fetus with severe translocase deficiency; experiment: Tandem mass spectrometry assay of fatty acid oxidation in amniocytes; assay type: cell-based, human; settings: translocase-deficient amniocytes
Description: Because a sibling had died at the age of four days from severe translocase deficiency, amniocytes obtained from a fetus were examined for competency in fatty acid metabolism. […] Fibroblasts taken from the deceased sibling and amniocytes taken from the fetus were both evaluated for fatty acid metabolism of n-heptanoic acid (C7) using a tandem mass spectrometry assay previously reported. (Yang, et al. 1998. “Identification of four novel mutations in patients with carnitine palmitoyltransferase II (CPT II) deficiency,” Mol Genet Metab 64:229-236). […]

[3] = test system: carnitine palmitoyltransferase II (CPT II) deficient fibroblasts; experiment: Tandem mass spectrometry assay of labeled fatty acid oxidation; assay type: cell-based, human; settings: for accumulation of labeled acylcarnitine of the precursor: m/z417 for D3-C16, m/z319 for D3-C9
Procedure: as §1, §2, §3

[4] = test system: long-chain L-3-hydroxy-acyl-CoA dehydrogenase (LCHAD) deficient fibroblasts; experiment: as above; assay type: cell-based, human
Procedure: as §1, §2, §3

fasting rats = settings: rats fed the triglyceride; Anderson et al. 1975; cited from earlier work
[5] = test system: medium-chain acyl-CoA dehydrogenase (MCAD) deficient fibroblasts; experiment: Tandem mass spectrometry assay of labeled fatty acid oxidation; assay type: cell-based, human; settings: for accumulation of labeled acylcarnitine: C8 m/z305.3 from D3-C16, m/z305 for D3-C8, m/z291 heptanoylcarnitine for D3-C7
Procedure: as §1, §2, §3

[6] = test system: electron transfer flavoprotein QO dehydrogenase-mild (ETF-DH mild) deficient fibroblasts; experiment: as above; assay type: cell-based, human
Procedure: as §1, §2, §3

[7] = test system: short-chain acyl-CoA dehydrogenase (SCAD) deficient fibroblasts; experiment: as above; assay type: cell-based, human
Procedure: as §1, §2, §3

[8] = test system: electron transfer flavoprotein QO dehydrogenase-severe (ETF-DH severe) deficient fibroblasts; experiment: as above; assay type: cell-based, human
Procedure: as §1, §2, §3

[9] = test system: VLCAD-H (hypoglycemic form of very-long-chain acyl-CoA dehydrogenase) deficient fibroblasts; experiment: as above; assay type: cell-based, human
Procedure: as §1, §2, §3

[10] = test system: VLCAD-C (cardiac form of very-long-chain acyl-CoA dehydrogenase) deficient fibroblasts; experiment: as above; assay type: cell-based, human
Procedure: as §1, §2, §3

[11] = test system: carnitine palmitoyltransferase I (CPT I) deficient fibroblasts; experiment: as above; assay type: cell-based, human
Procedure: as §1, §2, §3

[12] = test system: mitochondrial trifunctional protein (TRIFUNCTIONAL) deficient fibroblasts; experiment: as above; assay type: cell-based, human
Procedure: as §1, §2, §3

normal fibroblasts = experiment: as above; assay type: cell-based, human
Description: Fibroblasts taken from the deceased sibling and amniocytes taken from the fetus were both evaluated for fatty acid metabolism of n-heptanoic acid (C7) using a tandem mass spectrometry assay previously reported. (Yang, et al. 1998. “Identification of four novel mutations in patients with carnitine palmitoyltransferase II (CPT II) deficiency,” Mol Genet Metab 64:229-236). The mass spectrometry results are presented for palmitate in FIG. 3A and triheptanoin in FIG. 3B for the fibroblasts taken from the deceased sibling, and for palmitate in FIG. 4A and triheptanoin in FIG. 4B for the amniocytes taken from the fetus. […]
The normal cell line and eleven abnormal cell lines were analyzed in groups of three. For quantitative purposes, labeled internal standards were included in each analysis and are designated as “IS” on the first profile in each group. […]

## CCCCCCC(=O)O [n-heptanoic acid]
[1]
  oxidation of the fatty acid (labeled acylcarnitine profile): successful oxidation; also recorded: readily oxidized to propionyl-CoA
[2]
  oxidation of the fatty acid: readily oxidized to propionyl-CoA

## [2H]C([2H])([2H])CCCCCCCC(=O)O [D3-C9, 9-^2H3-nonanoate]
[1]
  accumulation of labeled acylcarnitine of the precursor: an increase was observed at m/z319
[3]
  accumulation of labeled acylcarnitine of the precursor: an increase was observed at m/z319
[4]; m/z319 for D3-C9
  accumulation of labeled acylcarnitine of the precursor: an increase was observed at m/z319

## CCCCCCCCCCC(=O)OCC(COC(=O)CCCCCCCCCC)OC(=O)CCCCCCCCCC [triundecanoin]
Fasting rats
  blood glucose levels during prolonged fasting: maintain nonfasting blood glucose levels during prolonged fasting

## [2H]C([2H])([2H])CCCCCCC(=O)O [D3-C8, 8-^2H3-octanoate]
[1]
  accumulation of labeled acylcarnitine of the precursor: relative accumulation of m/z 305
[5]
  accumulation of labeled acylcarnitine: relative accumulation of m/z 305

## [2H]C([2H])([2H])CCCCCCCCCCCCCCC(=O)O [D3-C16, 16-^2H3-palmitate]
[1]
  oxidation of the fatty acid (labeled acylcarnitine profile): no oxidation occurs
  accumulation of labeled acylcarnitine of the precursor: large quantities of labeled palmitoylcarnitine
[6]
  oxidation of the fatty acid (labeled acylcarnitine profile): abnormal profiles of labeled acylcarnitines
[5]
  oxidation of the fatty acid (labeled acylcarnitine profile): oxidation clearly proceed down to the level of C8
  accumulation of labeled acylcarnitine: marked accumulation
[3]
  oxidation of the fatty acid (labeled acylcarnitine profile): no oxidation occurs
  accumulation of labeled acylcarnitine of the precursor: large quantities of labeled palmitoylcarnitine
[7]
  oxidation of the fatty acid (labeled acylcarnitine profile): oxidation stops at m/z249
[8]
  oxidation of the fatty acid (labeled acylcarnitine profile): abnormal profiles of labeled acylcarnitines
[9]
  profile of labeled acylcarnitines: abnormal profiles of labeled acylcarnitines
[4]
  profile of labeled acylcarnitines: abnormal profiles of labeled acylcarnitines
[10]
  profile of labeled acylcarnitines: abnormal profiles of labeled acylcarnitines
[11]
  amount of labeled palmitoylcarnitine (m/z417): minimal amount
  oxidation of the fatty acid (labeled acylcarnitine profile): virtually no oxidation occurs
[12]
  profile of labeled acylcarnitines: abnormal profiles of labeled acylcarnitines
Normal fibroblasts
  profile of labeled acylcarnitine intermediates: from C16 down to and including C4

## [2H]C([2H])([2H])CCCCCC(=O)O [D3-C7, 7-^2H3-heptanoate]
[1]; compared to normal cells
  relative amount of 2H3-propionate-C3 (m/z235) produced: either comparable to or in excess of the amount seen in normal cells
[6]
  oxidation of the fatty acid (labeled acylcarnitine profile): no oxidation of labeled 7-^2H3-heptanoate was observed
[5]
  accumulation of labeled acylcarnitine: markedly increased
[3]; compared to normal cells
  relative amount of 2H3-propionate-C3 (m/z235) produced: either comparable to or in excess of the amount seen in normal cells
[7]; compared to normal cells
  relative amount of 2H3-propionate-C3 (m/z235) produced: either comparable to or in excess of the amount seen in normal cells
[8]
  oxidation of the fatty acid (labeled acylcarnitine profile): no oxidation of labeled 7-^2H3-heptanoate was observed
[9]; compared to normal cells
  relative amount of 2H3-propionate-C3 (m/z235) produced: either comparable to or in excess of the amount seen in normal cells
[4]; compared to normal cells
  relative amount of 2H3-propionate-C3 (m/z235) produced: either comparable to or in excess of the amount seen in normal cells
[10]; compared to normal cells
  relative amount of 2H3-propionate-C3 (m/z235) produced: either comparable to or in excess of the amount seen in normal cells
[11]; compared to normal cells
  relative amount of 2H3-propionate-C3 (m/z235) produced: either comparable to or in excess of the amount seen in normal cells
[12]; compared to normal cells
  relative amount of 2H3-propionate-C3 (m/z235) produced: either comparable to or in excess of the amount seen in normal cells
